These results are taken from patent US10399944B2, “Pyridin-2-one derivatives of formula (III) useful as EP3 receptor antagonists” (Janssen Pharmaceutica NV, priority 2017, dated 2019).

Some results are limits rather than exact numbers.

Experiment [1] deals with T1, EP3 receptor (Homo sapiens, UniProt P43115).
T1 sequence (P43115 1-390): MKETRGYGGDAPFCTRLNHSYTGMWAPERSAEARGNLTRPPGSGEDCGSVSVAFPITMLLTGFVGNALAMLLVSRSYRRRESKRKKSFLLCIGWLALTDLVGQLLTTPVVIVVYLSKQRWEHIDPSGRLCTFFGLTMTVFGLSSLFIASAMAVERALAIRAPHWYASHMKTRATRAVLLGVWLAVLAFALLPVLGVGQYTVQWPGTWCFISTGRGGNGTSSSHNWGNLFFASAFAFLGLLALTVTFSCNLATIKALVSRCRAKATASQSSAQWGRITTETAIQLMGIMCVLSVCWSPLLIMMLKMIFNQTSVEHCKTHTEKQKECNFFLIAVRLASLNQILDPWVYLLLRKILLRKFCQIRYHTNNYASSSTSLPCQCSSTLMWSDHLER
Briefly: CHO cell cAMP assay (forskolin and sulprostone stimulated, HTRF detection). The note with it: sulprostone 700 nM (EC80) and FSK 2 μM (EC70); read-out: CHO_cAMP IC50. Format: cell-based.

The test system of a further experiment is male Sprague Dawley rats. Briefly: IV infused EP3 antagonists on circulating insulin and glucose in the sulprostone infusion IVGTT model. Format: in vivo, rat. The note with it: IV bolus plus infusion at 7×Ki and 10×Ki (targeted), with 3 μg/kg/min sulprostone, SD rats. The text has this:
IV Infused EP3 Antagonists on Circulating Insulin and Glucose in the Sulprostone Infusion IVGTT Model
Jugular vein and carotid artery cannulated male Sprague Dawley rats (˜250 g, available from Charles River) were housed one rat per suspended cage in a temperature-controlled room with 12-hour light/dark cycle. The rats were allowed ad libitum access to water and maintained on a regular diet. Animals were acclimated for minimum 5 days prior to the start of the experiment. Experimental procedures were carried out in accordance with institutional standards for animal care and were approved by the institute's animal care and use committee.
A blood sample for insulin and blood chemistry was collected at 20 min (t=−20) prior to the start of dosing with sulprostone and/or test compound (EP3 antagonist). […]
Blood samples from all animals were collected into Heparin treated tubes. Background was measured via a glucometer at the 0 and 2 min time points to ensure that the animal received the glucose bolus. Plasma insulin was measured via a Meso Scale Discovery metabolic assay (available from Meso Scale). Plasma glucose, free fatty acid (FFA), triglycerides, cholesterol and ketones were measured on an OLYMPUS AU400E chemistry analyzer. Observations on animal health were recorded throughout the procedure. […]

The target in the next experiment is T2, mEP3 (Mus musculus, UniProt P30557).
T2 sequence (P30557 1-365): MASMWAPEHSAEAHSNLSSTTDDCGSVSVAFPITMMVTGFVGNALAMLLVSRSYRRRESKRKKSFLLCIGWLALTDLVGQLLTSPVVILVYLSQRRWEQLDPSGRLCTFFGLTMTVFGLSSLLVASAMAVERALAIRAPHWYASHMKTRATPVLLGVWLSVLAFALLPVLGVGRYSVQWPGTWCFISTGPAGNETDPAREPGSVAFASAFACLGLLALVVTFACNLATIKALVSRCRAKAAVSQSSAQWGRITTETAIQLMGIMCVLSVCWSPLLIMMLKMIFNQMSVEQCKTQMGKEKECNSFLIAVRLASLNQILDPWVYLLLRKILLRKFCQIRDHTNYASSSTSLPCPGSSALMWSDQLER
Briefly: mEP3 Ki used for dose targeting in the IVGTT model. Format: binding.

For experiment [2], the target named is T1, EP3 receptor. Briefly: [3H]-PGE2 binding assay (EP3 competition binding, SPA beads).

One may read the IC50 as the concentration that gives 50% inhibition. In the case of `CC(C)(C)C(/C=C1/OC(=O)NC1=O)C1C=CC(c2ccc3cccc(F)c3c2)=NC1=O` (mixture of isomers) [compound 275, (E)-5-(2-(6-(8-fluoronaphthalen-2-yl)-2-oxo-2,3-dihydropyridin-3-yl)-3,3-dimethylbutylidene)oxazolidine-2,4-dione], the IC50 on EP3 receptor [1] was over 20000 nM.
For orientation: Ki means the dissociation constant of the complex between target and ligand, obtained from inhibition or displacement. The low end stands for tighter binding, the high end for weaker binding. Take `CC(C)C(/C=C1\OC(=O)NC1=O)c1ccc(-c2ccc3cccc(F)c3c2)[nH]c1=O` (racemic) [Compound #62, (Z)-5-(2-(6-(8-fluoronaphthalen-2-yl)-2-oxo-1,2-dihydropyridin-3-yl)-3-methylbutylidene)oxazolidine-2,4-dione]: the “suppression of glucose stimulate insulin secretion (GSIS) by sulprostone” value in the experiment on male Sprague Dawley rats is reported as “reverse suppression of glucose stimulate insulin secretion (GSIS) by sulprostone”. On mEP3, this compound had a Ki of 8.6 nM.
`CC(C)C(/C=C1\OC(=O)NC1=O)c1ccc(-c2ccc3c(c2)OCCO3)[nH]c1=O` (racemic) [Compound #85, (Z)-5-(2-(6-(2,3-dihydrobenzo[b][1,4]dioxin-6-yl)-2-oxo-2,3-dihydropyridin-3-yl)-3-methylbutylidene)oxazolidine-2,4-dione]: affinity on EP3 receptor [2] was put at a Ki of 44 nM. The concentration for half-maximal inhibition (IC50) at EP3 receptor [1] amounted to 122 nM.
With `CCn1ncc2c(F)cc(-c3ccc(C(/C=C4\OC(=O)NC4=O)C(C)C)c(=O)[nH]3)cc21` (racemic) [Compound #94, 5-(2-(6-(1-ethyl-4-fluoro-1H-indazol-6-yl)-2-oxo-1,2-dihydropyridin-3-yl)-3-methylbutylidene)-oxazolidine-2,4-dione], the Ki at EP3 receptor [2] stood at 20 nM. Moreover, the IC50 on EP3 receptor [1] was determined as 181 nM.
In the same order, the values of `CCn1ncc2c(F)cc(-c3[nH]c(=O)c(C(/C=C4\OC(=O)NC4=O)C(C)C)cc3Cl)cc21` (racemic) [Compound #125, 5-(2-(5-chloro-6-(1-ethyl-4-fluoro-1H-indazol-6-yl)-2-oxo-1,2-dihydropyridin-3-yl)-3-methylbutylidene) oxazolidine-2,4-dione] are 487 nM and 658 nM.
In the same order, the values of `CC(C)C(/C=C1\OC(=O)NC1=O)c1ccc(-c2ccc3c(c2)OC(F)(F)O3)[nH]c1=O` (racemic) [Compound #276, (Z)-5-(2-(6-(2,2-difluorobenzo[d][1,3]dioxol-5-yl)-2-oxo-2,3-dihydropyridin-3-yl)-3-methylbutylidene)oxazolidine-2,4-dione] are 5650 nM and 7600 nM.
In the same order, the values of `CC(C)[C@@H](c1ccc(-c2ccc3cccc(F)c3c2)[nH]c1=O)[C@H]1OC(=O)NC1=O` (relative stereo) [Compound #59] are 85 nM and 611 nM.
`CC(C)[C@H](C[C@@H]1OC(=O)NC1=O)c1ccc(-c2ccc3cccc(F)c3c2)[nH]c1=O` (relative stereo) [Compound #81] had a Ki at EP3 receptor [2] of 6 nM. Also, at EP3 receptor [1], the IC50 was 15 nM.
Compound `CCn1ncc2c(F)cc(-c3ccc([C@]4(O)CC[C@H]5C[C@@H]4NC5=O)c(=O)[nH]3)cc21` (stereo in doubt) [Compound #300, 4-(6-(1-ethyl-4-fluoro-1H-indazol-6-yl)-2-oxo-1,2-dihydropyridin-3-yl)-4-hydroxy-6-azabicyclo[3.2.1]octan-7-one] registered an inhibition constant (Ki) at EP3 receptor [2] of 5 nM.
`CC(=C1OC(=O)NC1=O)C(c1ccc(-c2ccc3cccc(F)c3c2)[nH]c1=O)C(C)C` (stereo not drawn) [Compound 96] registered a Ki at EP3 receptor [2] of 17 nM. Also, the IC50 at EP3 receptor [1] worked out at 39 nM.
In the same order, the values of `O=C1NC(=O)/C(=C\C2(c3ccc(-c4ccc5cccc(F)c5c4)[nH]c3=O)CC2)O1` [Compound #11] are 28 nM and 55 nM.
On EP3 receptor [2], `CCn1cc2c(F)c(-c3ccc(C(/C=C4/OC(=O)NC4=O)(CC)CC)c(=O)[nH]3)ccc2n1` [Compound #14] showed a Ki of over 10000 nM. The half-maximal inhibitory concentration (IC50) on EP3 receptor [1] is over 20000 nM.
Take `CCn1cnc2c(F)c(-c3ccc(C(C=C4OC(=O)NC4=O)C(C)C)c(=O)[nH]3)ccc21` (stereo not drawn) [Compound #90, 5-(2-(6-(1-ethyl-4-fluoro-1H-benzo[d]imidazol-5-yl)-2-oxo-1,2-dihydropyridin-3-yl)-3-methylbutyli-dene)oxazolidine-2,4-dione]: the affinity on EP3 receptor [2] corresponds to a Ki of 633 nM. Besides, the IC50 on EP3 receptor [1] is 5430 nM.
For `CC(C)C(/C=C1\OC(=O)NC1=O)c1ccc(-c2ccc3cnsc3c2)[nH]c1=O` (stereo not drawn) [Compound #93], on EP3 receptor [2], the affinity, expressed as Ki, was 1070 nM. For the same compound, the IC50 at EP3 receptor [1] came to 9940 nM.
For `CCN1CCOc2cc(-c3ccc(C(/C=C4\OC(=O)NC4=O)C(C)C)c(=O)[nH]3)ccc21` (stereo not drawn) [Compound #121], in that order: 73 nM and 363 nM.
As for `CCn1ncc2c(F)cc(-c3ccc(C(/C=C4\OC(=O)NC4=O)C4CCCCC4)c(=O)[nH]3)cc21` (stereo not drawn) [Compound #127, 5-(2-cyclohexyl-2-(6-(1-ethyl-4-fluoro-1H-indazol-6-yl)-2-oxo-1,2-dihydropyridin-3-yl)ethylidene) oxazolidine-2,4-dione], the affinity at EP3 receptor [2], expressed as Ki, was 46 nM. At EP3 receptor [1], the IC50 stood at 548 nM.
In the case of `CCN1CCOc2ccc(-c3ccc(C(/C=C4\OC(=O)NC4=O)C(C)C)c(=O)[nH]3)cc21` (stereo not drawn) [Compound #137], the Ki on EP3 receptor [2] is 54 nM. Besides, the half-inhibitory concentration (IC50) at EP3 receptor [1] came out at 218 nM.
`CC(C)C1(c2ccc(-c3ccc4cccc(F)c4c3)[nH]c2=O)C(=O)Nc2nncn21` (stereo not drawn) [Compound #156]: at EP3 receptor [2], the affinity, expressed as Ki, was 57 nM. Moreover, the concentration for half-maximal inhibition (IC50) on EP3 receptor [1] stood at 508 nM.
For `O=C1NC(=O)[C@]2(CCC[C@H](c3ccc(-c4ccc5ccccc5c4)[nH]c3=O)C2)O1` [Compound #189, Syn-7-(6-(naphthalen-2-yl)-2-oxo-1,2-dihydropyridin-3-yl)-1-oxa-3-azaspiro[4.5]decane-2,4-dione], the inhibition constant Ki at EP3 receptor [2] was 16 nM. For the same compound, the IC50 on EP3 receptor [1] was determined as 109 nM.
At EP3 receptor [2], `CC(C)C(c1ccc(-c2ccc3cccc(F)c3c2)[nH]c1=O)C1OC(=O)NC1=O` (stereo not drawn) [compound 60] yielded a Ki of 27 nM. Moreover, the IC50 on EP3 receptor [1] amounted to 92 nM.
For `CC(C)C(CC1OC(=O)NC1=O)c1ccc(-c2ccc3cccc(F)c3c2)[nH]c1=O` (stereo not drawn) [compound 74], in that order: 8 nM and 27 nM.
As for `O=C1NC(=O)C2(CCCC(c3ccc(-c4ccc5ccccc5c4)[nH]c3=O)C2)O1` (stereo not drawn) [compound 188, anti-7-(6-(naphthalen-2-yl)-2-oxo-1,2-dihydropyridin-3-yl)-1-oxa-3-azaspiro[4.5]decane-2,4-dione], at EP3 receptor [2], the Ki turned out to be 15 nM. For the same compound, the IC50 on EP3 receptor [1] was 120 nM.
